Reference: BindingDB's records for doi:10.7270/Q2V40SP7 (The Scripps Research Institute Molecular Screening Center, 2011)
pIC50: −log10 of the molar value.

Biological target: T1, Peroxisome proliferator-activated receptor gamma (Homo sapiens, UniProt P37231)
T1 sequence (P37231 whole entry): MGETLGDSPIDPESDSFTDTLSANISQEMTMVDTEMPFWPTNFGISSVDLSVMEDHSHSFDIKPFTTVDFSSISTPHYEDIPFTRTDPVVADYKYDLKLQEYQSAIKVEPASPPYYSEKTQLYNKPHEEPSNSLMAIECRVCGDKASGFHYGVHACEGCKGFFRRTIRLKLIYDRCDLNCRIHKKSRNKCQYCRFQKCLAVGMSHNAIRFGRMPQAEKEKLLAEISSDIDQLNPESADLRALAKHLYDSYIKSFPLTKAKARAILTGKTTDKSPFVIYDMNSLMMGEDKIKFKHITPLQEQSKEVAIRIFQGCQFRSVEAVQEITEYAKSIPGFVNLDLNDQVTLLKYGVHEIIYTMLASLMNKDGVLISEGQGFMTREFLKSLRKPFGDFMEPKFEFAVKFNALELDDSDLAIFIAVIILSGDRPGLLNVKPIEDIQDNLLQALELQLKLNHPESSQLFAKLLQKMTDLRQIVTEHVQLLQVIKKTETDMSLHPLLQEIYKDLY
Assay: competitive ligand displacement at PPARg – biochemical, TR-FRET, LanthaScreen, PPARg partial agonist project, dose response (AID 504446)

| Structure (SMILES) | pIC50 |
| --- | --- |
| CCOc1ccc2nc(N3C(=O)C(=O)C(C(=O)c4ccco4)C3c3ccco3)sc2c1 (centres undefined) [1-(6-ethoxy-1,3-benzothiazol-2-yl)-2-(2-furanyl)-3-[2-furanyl(oxo)methyl]-4-hydroxy-2H-pyrrol-5-one] | 5.09 |
| COc1ccc2nc(N3C(=O)C(=O)C(C(=O)c4ccco4)C3c3ccc(C)o3)sc2c1 (centres undefined) | 5.92 |
| Cc1ccc2nc(N3C(=O)C(=O)C(C(=O)c4ccco4)C3c3ccc(C)o3)sc2c1 (centres undefined) [3-[2-furanyl(oxo)methyl]-4-hydroxy-1-(6-methyl-1,3-benzothiazol-2-yl)-2-(5-methyl-2-furanyl)-2H-pyrrol-5-one;oxalic acid] | 4.85 |
| Cc1ccc2nc(N3C(=O)C(=O)C(C(=O)c4ccc(C)o4)C3c3ccco3)sc2c1 (centres undefined) | 5.59 |
